By IC50 is commonly meant the concentration at which inhibition is half-maximal.

Some results are limits rather than exact numbers.

The text below walks through data of patent publication US8680120B2, “Indole derivative or pharmaceutically acceptable salt thereof” (Kissei Pharmaceutical Co., Ltd., priority 2009, dated 2014).

The first assay deals with rat EP1 receptor (Rattus norvegicus (Rat), UniProt P70597). The experiment in a line: Test for confirmation of EP1 receptor antagonism: inhibition of the prostaglandin E2-induced increase in intracellular calcium concentration in rat EP1 receptor-expressing COS-1 cells. It is filed as cell-based. The conditions noted are these: Method A: Fluo-4 NW Calcium Assay Kit, FlexStation; prostaglandin E2 10 nM; rat EP1 receptor-expressing COS-1 cells. As to the method: (1) Preparation of Rat EP1 Expression Vector
Sequence of rat EP1 receptor (P70597 whole entry): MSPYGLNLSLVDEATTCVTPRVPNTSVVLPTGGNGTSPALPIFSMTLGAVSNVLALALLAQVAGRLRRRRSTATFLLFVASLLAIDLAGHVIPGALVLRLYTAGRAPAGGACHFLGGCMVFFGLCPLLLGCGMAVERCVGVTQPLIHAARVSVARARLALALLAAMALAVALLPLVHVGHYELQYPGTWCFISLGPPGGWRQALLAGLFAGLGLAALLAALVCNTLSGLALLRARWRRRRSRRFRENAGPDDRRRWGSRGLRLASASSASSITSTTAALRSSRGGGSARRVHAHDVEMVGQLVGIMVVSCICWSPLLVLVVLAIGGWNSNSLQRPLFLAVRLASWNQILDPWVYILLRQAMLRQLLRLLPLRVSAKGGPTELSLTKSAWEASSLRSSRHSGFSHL
Using Rat Kidney BD Marathon-Ready cDNA (Nippon Becton Dickinson Company, Ltd.) as a template, a forward primer shown in SEQ ID NO. 1, and a reverse primer shown in SEQ ID NO. 2, a first run of PCR was carried out using KOD-Plus-Ver 2.0 (Toyobo Co., Ltd.). Further, using this amplification product as a template, a forward primer shown in SEQ ID NO. 3, and a reverse primer shown in SEQ ID NO. 4, a second run of PCR was carried out in the same manner. The amplification product obtained by the second run of PCR was incorporated into a vector (pcDNA3.1 D/V5-His-TOPO (registered trademark), Invitrogen Japan K. K.). By a conventional method, the vector containing this amplification product was introduced to E. coli (One Shot TOP10 Competent Cells, Invitrogen Corporation) to transform. This transformed E. coli was cultured in an LB agar medium for one day. After the culture, colonies were selected and cultured in an LB liquid medium containing 50 μg/mL of ampicillin. After the culture, the vector was purified using a QIAprep Spin Miniprep Kit (Qiagen K. K.). The base sequence of the insertion site of this vector (SEQ ID NO. 5) was compared with the rat EP1 base sequence (Ptger1) registered as an accession number NM_013100 in well-known database (NCBI), and as a result, they all matched except for a single base. Further, the amino acid sequence translated by the base sequence completely matched the amino acid sequence of the rat EP1 receptor registered as an NCBI accession number NP_037232. Therefore, it was confirmed that the cloned gene sequence was a base sequence of the rat EP1 receptor and the obtained amino acid sequence was that of the rat EP1 receptor. The pcDNA3.1 D/V5-His-TOPO (registered trademark) to which the nucleic acid shown in SEQ ID NO. 5 had been inserted was taken as a rat EP1-expressing vector.
(2) Preparation of Rat EP1 Receptor-Expressing Cells
COS-1 cells (Dainippon Sumitomo Pharma Co., Ltd.) were cultured until it reached confluence in an incubator at 37° C. under a 5% CO2 gas condition, using a D-MEM liquid medium (high glucose and L-glutamine contained, Invitrogen Corporation) to which a penicillin-streptomycin solution (Invitrogen Corporation, final concentration: 100 U/mL as benzylpenicillin; 100 μg/mL as streptomycin) as an antibiotic, MEM nonessential amino acids (Invitrogen Corporation, final Concentration: 0.1 mM), and fetal calf serum (Sanko Junyaku Co., Ltd., final concentration: 10%) were added.
The cells that had reached confluence were stripped with 0.05% trypsin/0.53 mM EDTA 4Na (Invitrogen Japan K. K.) and resuspended in the liquid medium. The resuspended cells were diluted and cultured in the liquid medium at a spread ratio from 1:4 to 1:8.
The cells that had reached confluence were stripped with 0.05% trypsin/0.53 mM EDTA.4Na, and resuspended in a D-MEM liquid medium (high glucose and L-glutamine contained, Invitrogen Corporation) to which an MEM nonessential amino acid (final concentration: 0.1 mM) and fetal calf serum (final concentration: 10%) were added. In each well of a Poly D-lysine-coated 96-well microplate (BD BioCoat (registered trademark), Nippon Becton Dickinson Company, Ltd.), this resuspended cell suspension culture was prepared to be 5×10^4 cells/well in 100 μL of the liquid medium, and seeded thereon. After seeding, the cells were cultured in an incubator at 37° C. under a 5% CO2 gas condition. At a point when the cells for introduction of a rat EP1-expressing vector were adhered (about 2 hours after seeding), introduction of the rat EP1-expressing vector was carried out in the following order.
For introduction of the rat EP1-expressing vector, Lipofectamine 2000 (Invitrogen Japan K. K.) was used. […]
For `Cc1ccc2c(c1)cc(-c1ccccc1)n2Cc1cccc(C(=O)O)c1` [Example 9-13, 3-(5-methyl-2-phenylindol-1-ylmethyl)benzoic acid], the half-inhibitory concentration (IC50) is 89 nM.
`COc1ccc2c(c1)cc(-c1ccoc1)n2Cc1cccc(C(=O)O)c1` [Example 9-32, 3-(2-furan-3-yl-5-methoxyindol-1-ylmethyl)benzoic acid]: the IC50 stood at 11 nM.
With `COc1ccc2c(c1)cc(-c1ccccc1)n2Cc1cccc(C(=O)O)c1` [Example 9-1, 3-(5-methoxy-2-phenylindol-1-ylmethyl)benzoic acid], the IC50 turned out to be 21 nM.
As to `COc1ccc2c(c1)cc(-c1ccsc1)n2Cc1cccc(C(=O)O)n1` [Example 9-35, 6-(5-methoxy-2-thiophen-3-ylindol-1-ylmethyl)pyridine-2-carboxylic acid], the IC50 worked out at 23 nM.
The same measure, in the same setting: then `COc1ccc2c(c1)cc(-c1ccsc1)n2Cc1cccc(C(=O)O)c1` [Example 9-25, 3-(5-methoxy-2-thiophen-3-ylindol-1-ylmethyl)benzoic acid], with 35 nM; and “3-(5-methyl-2-phenylindol-1-yl)carboxylic acid [Comparative Example 1, reference compound]”, with greater than 10000 nM.
Consider `COc1cc2cc(-c3ccccc3)n(Cc3cccc(C(=O)O)c3)c2cc1F` [Example 9-43, 3-(6-fluoro-5-methoxy-2-phenylindol-1-ylmethyl)benzoic acid], for which the concentration for half-maximal inhibition (IC50) was 13 nM.
Still for that read-out and setting: then `COc1ccc2c(c1)cc(C(C)C)n2Cc1cccc(C(=O)O)c1` [Example 9-15, 3-(2-isopropyl-5-methoxyindol-1-ylmethyl)benzoic acid], with 22 nM; and `COc1ccc2c(c1)cc(-c1ccccc1)n2Cc1cccc(C(=O)O)c1F` [Example 9-44, 2-fluoro-3-(5-methoxy-2-phenylindol-1-ylmethyl)benzoic acid], with 19 nM.

Still in this assay, the particulars now being: Method B: Calcium kit II Fluo 4, FDSS 7000; prostaglandin E2 10 nM; rat EP1 receptor-expressing COS-1 cells.
On to `COc1cc2cc(-c3cccnc3)n(Cc3cccc(C(=O)O)n3)c2cc1F` [Example 25-33, 6-(6-fluoro-5-methoxy-2-pyridin-3-ylindol-1-ylmethyl)pyridine-2-carboxylic acid], for which the IC50 worked out at 58 nM.
On the same count and under the same terms, then `COc1ccc2c(c1)cc(-c1ccccc1)n2Cc1csc(C(=O)O)n1` [Example 25-12], with 55 nM; and `COc1cc2cc(-c3ccccc3F)n(Cc3cccc(C(=O)O)n3)c2cc1F` [Example 25-28, 6-[6-fluoro-2-(2-fluorophenyl)-5-methoxyindol-1-ylmethyl]pyridine-2-carboxylic acid], with 28 nM.
Regarding `COc1cc2cc(-c3cccc(F)c3)n(Cc3cccc(C(=O)O)n3)c2cc1F` [Example 25-29, 6-[6-fluoro-2-(3-fluorophenyl)-5-methoxyindol-1-ylmethyl]pyridine-2-carboxylic acid], the half-inhibitory concentration (IC50) was found to be 26 nM.
For the compound `COc1ccc2c(c1)cc(-c1cc(F)ccc1F)n2Cc1cccc(C(=O)O)n1` [Example 25-41, 6-[2-(2,5-difluorophenyl)-5-methoxyindol-1-ylmethyl)pyridine-2-carboxylic acid], the IC50 was found to be 25 nM.
As to `COc1cc2cc(-c3ccccc3)n(Cc3ccc(C(=O)O)o3)c2cc1Cl` [Example 25-26, 5-[6 chloro-5-methoxy-2-phenylindol-1-ylmethyl]furan-2-carboxylic acid], the 50% inhibitory concentration (IC50) came to 17 nM.
For the compound `COc1ccc2c(c1)cc(-c1cccc(F)c1)n2Cc1cccc(C(=O)O)c1` [Example 25-18, 3-[2-(3-fluorophenyl)-5-methoxyindol-1-ylmethyl]benzoic acid], the IC50 is 17 nM.
As to `COc1cc2cc(-c3ccsc3)n(Cc3cccc(C(=O)O)n3)c2cc1Cl` [Example 25-34, 6-(6-chloro-5-methoxy-2-thiophen-3-ylindol-1-ylmethyl)pyridine-2-carboxylic acid], the IC50 was 54 nM.
In the case of `COc1cc2cc(-c3ccoc3)n(Cc3ccc(C(=O)O)o3)c2cc1Cl` [Example 25-38, 5-(6-chloro-2-furan-3-yl-5-methoxyindol-1-ylmethyl)furan-2-carboxylic acid], the IC50 turned out to be 22 nM.
Consider `COc1cc2cc(-c3cccc(F)c3)n(Cc3cccc(C(=O)O)n3)c2cc1Cl` [Example 25-23, 6-[6-chloro-2-(3-fluorophenyl)-5-methoxyindol-1-ylmethyl]pyridine-2-carboxylic acid], for which the IC50 was 32 nM.
For the compound `COc1cc2cc(-c3ccsc3)n(Cc3cccc(C(=O)O)n3)c2cc1C` [Example 25-39, 6-(5-methoxy-6-methyl-2-thiophen-3-ylindol-1-ylmethyl)pyridine-2-carboxylic acid], the IC50 is 37 nM.
For `CCC(C)c1cc2cc(OC)c(Cl)cc2n1Cc1cccc(C(=O)O)n1` (centres unmarked) [Example 25-44, 6-[6-chloro-5-methoxy-2-(1-methylpropyl)indol-1-ylmethyl]pyridine-2-carboxylic acid], the IC50 worked out at 51 nM.
As for `COc1cc2cc(-c3ccccc3)n(Cc3cccc(C(=O)O)n3)c2cc1Cl` [Example 25-9, 6-(6-chloro-5-methoxy-2-phenylindol-1-ylmethyl)pyridine-2-carboxylic acid], the IC50 was determined as 67 nM.
On to `COc1ccc2c(c1)cc(-c1ccc(F)cc1)n2Cc1cccc(C(=O)O)c1` [Example 25-19, 3-[2-(4-fluorophenyl)-5-methoxyindol-1-ylmethyl]benzoic acid], for which the 50% inhibitory concentration (IC50) was 36 nM.
The same measure, in the same setting: then `COc1ccc2c(c1)cc(-c1ccccc1F)n2Cc1cccc(C(=O)O)c1` [Example 25-17, 3-[2-(2-fluorophenyl)-5-methoxyindol-1-ylmethyl]benzoic acid], with 32 nM.
In the case of `COc1cc2cc(-c3ccoc3)n(Cc3cccc(C(=O)O)n3)c2cc1Cl` [Example 25-37, 6-(6-chloro-2-furan-3-yl-5-methoxyindol-1-ylmethyl)pyridine-2-carboxylic acid], the concentration for half-maximal inhibition (IC50) was 27 nM.
For the compound `COc1ccc2c(c1)cc(-c1cccnc1)n2Cc1cccc(C(=O)O)c1` [Example 25-13, 3-(5-methoxy-2-pyridin-3-ylindol-1-ylmethyl)benzoic acid], the IC50 was 38 nM.
With `COc1cc2cc(-c3cccnc3)n(Cc3cccc(C(=O)O)n3)c2cc1Cl` [Example 25-42, 6-(6-chloro-5-methoxy-2-pyridin-3-ylindol-1-ylmethyl)pyridine-2-carboxylic acid], the IC50 amounted to 28 nM.
On to `COc1cc2cc(-c3ccccc3)n(Cc3ccc(C(=O)O)o3)c2cc1C` [Example 25-36, 5-[5-methoxy-6-methyl-2-phenylindol-1-ylmethyl]furan-2-carboxylic acid], for which the IC50 came to 35 nM.
Regarding `COc1ccc2c(c1)cc(-c1cccc(F)c1)n2Cc1ccc(C(=O)O)o1` [Example 25-11, 5-[2-(3-fluorophenyl)-5-methoxyindol-1-ylmethyl]furan-2-carboxylic acid], the IC50 is 34 nM.
As to `COc1cc2cc(-c3ccc(F)cc3)n(Cc3cccc(C(=O)O)n3)c2cc1F` [Example 25-31, 6-[6-fluoro-2-(4-fluorophenyl)-5-methoxyindol-1-ylmethyl]pyridine-2-carboxylic acid], the IC50 was determined as 33 nM.
Take `COc1cc2cc(-c3ccccc3)n(Cc3cccc(C(=O)O)n3)c2cc1C` [Example 25-16, 6-(5-methoxy-6-methyl-2-phenylindol-1-ylmethyl)pyridine-2-carboxylic acid]: the half-inhibitory concentration (IC50) was found to be 39 nM.

The same assay, now with this note: as shown in Table 49.
As for “3-(5-methyl-2-phenylindol-1-yl)carboxylic acid [Comparative Example 1, reference compound]”, the “EP1 receptor antagonism (in words)” value is “do not exhibit EP1 receptor antagonism”.
